In patent US20230107983A1, “COMPOUND ISOLATED FROM TORILIDIS FRUCTUS, AND ANTICANCER PHARMACEUTICAL COMPOSITION CONTAINING SAME AS ACTIVE INGREDIENT” (PHARMA-GENE CO., LTD., priority 2020, published 2023):

Key:
[1] = test system: breast cancer(MDA-MB-231) cell line; assay: WST-1 assay, cell viability of breast cancer cell line; type: cell-based; conditions: 10-100 µg/Mℓ, 24 hours, FIG. 5
Method: (§1) The cytotoxicity of the Tr-9 compound to six cancer cell lines was confirmed. Lung cancer(A549), gastric cancer(AGS), liver cancer(Hep3B)), breast cancer(MDA-MB-231), colorectal cancer(HCT116) and pancreatic cancer(BxPC-3) cell lines and fibroblasts were aliquoted in a 96-well plate in an amount of 5×10^3 cells/well, and the novel compound Tr-9 was treated thereto at a concentration of 10, 20, 40, 60, 80, 100 µg/Mℓ for 24 hours, respectively. Lung cancer cell line was further treated at a concentration of 100 µg/Mℓ for 24 hours, 48 hours and 72 hours.
(§2) Then, the amount of living cells was measured using WST(high sensitive Water Soluble Tetrazolium salt). WST reacts with dehydrogenase in living cells and produces orange-colored watersoluble formazan. Since dehydrogenase that reacts with WST is an enzyme present in the mitochondrial electron transport chain of metabolically active cells and is effective only in living cells, the production of formazan is proportional to the number of living cells. Therefore, the absorbance at 450 nm was measured to confirm the cell viability through the formation of formazan.

[2] = test system: pancreatic cancer(BxPC-3) cell line; assay: WST-1 assay, cell viability of pancreatic cancer cell line; type: cell-based; conditions: 10-100 µg/Mℓ, 24 hours, FIG. 8
Method: as §1, §2

[3] = test system: colorectal cancer(HCT116) cell line; assay: WST-1 assay, cell viability of colorectal cancer cell line; type: cell-based, human; conditions: 10-100 µg/Mℓ, 24 hours, FIG. 7
Method: as §1, §2

[4] = test system: gastric cancer(AGS) cell line; assay: WST-1 assay, cell viability of gastric cancer cell line; type: cell-based; conditions: 10-100 µg/Mℓ, 24 hours, FIG. 4
Method: as §1, §2

[5] = test system: liver cancer(Hep3B) cell line; assay: WST-1 assay, cell viability of liver cancer cell line; type: cell-based; conditions: 10-100 µg/Mℓ, 24 hours, FIG. 6
Method: as §1, §2

[6] = test system: Lung cancer(A549) cell line; assay: WST-1 assay, cell viability of lung cancer cell line; type: cell-based, human; conditions: 10-100 µg/Mℓ, 24 hours, FIG. 3
Method: as §1, §2

Measured: cell viability

C=C(C)C1CC2=CC(=O)CC2C(C)CC1OC(=O)/C(C)=C\C (stereo not drawn) [Tr-10]
decreases the cell viability: [1] | [2] | [3] | [4] | [5] | [6]
